This passage reports Ki results from patent publication US6514978B2, “Thromboresistant materials incorporating pyrazinone protease inhibitors” (3-Dimensional Pharmaceuticals, Inc., priority 1998, dated 2003).

Where a name gives a salt, the structure may show the parent alone.

The target in the test is T1, human α-thrombin (Homo sapiens, UniProt P00734).
T1 construct: Purified human α-thrombin; purchased Enzyme Research Laboratories (South Bend, Ind.)
Nature of the test: In vitro inhibition of purified enzymes: Ki determination, thrombin (hydrolysis of N-succinyl-Ala-Ala-Pro-Arg-p-nitroanilide). The settings on record: purified human α-thrombin 0.5 nM, 50 mM HEPES, 200 mM NaCl, pH 7.5, 37° C., 4.3% DMSO. It counts as biochemical. The text has this:
Reagents: All buffer salts were obtained from Sigma Chemical Company (St. Louis, Mo.), and were of the highest purity avalable. The enzyme substrates, N-benzoyl-Phe—Val—Arg-p-nitroanilide (Sigma B7632), N-benzoyl-Ile—Glu—Gly—Arg-p-nitroanilide hydrochloride (Sigma B2291), N-p-Tosyl-Gly—Pro—Lys-p-nitroanilide (Sigma T6140), N-succinyl-Ala—Ala—Pro—Phe-p-nitroanilide (Sigma S7388) and N-CBZ-Val—Gly—Arg-p-nitroanilide (Sigma C7271) were obtained from Sigma.
Human α-thrombin, human factor Xa and human plasmin were obtained from Enzyme Research Laboratories (South Bend, Ind.). Bovine α-chymotrypsin (Sigma C4129), bovine trypsin (Sigma T8642) and human kidney cell urokinase (Sigma U5004) were obtained from Sigma. Human leukocyte elastase was obtained from Elastin Products (Pacific, Mo.).
Ki Determinations: All assays are based on the ability of the test compound to inhibit the enzyme catalyzed hydrolysis of a peptide-p-nitroanililide substrate. […] The final concentrations for each of the substrates is listed below. […] Dilutions are prepared in DMSO yielding 8 final concentrations encompassing a 200 fold concentration range. Enzyme solutions are prepared at the concentrations listed below in assay buffer.
Data corresponding to less than 10% of the total substrate hydrolysis were used in the calculations. The ratio of the velocity (rate of change in absorbance as a function of time) for a sample containing no test compound is divided by the velocity of a sample containing test compound, and is plotted as a function of test compound concentration. The data are fit to a linear regression, and the value of the slope of the line calculated. The inverse of the slope is the experimentally determined K value.
Thrombin: Thrombin activity was assessed as the ability to hydrolyze the substrate N-succinyl-Ala—Ala—Pro—Arg-p-nitroanilide. […] Final DMSO concentration was 4.3%. […] Final reagent concentrations were: [thrombin]=0.5 nM, [substrate N-succinyl-Ala—Ala—Pro—Arg-p-nitroanilide]=32 mM.
Turning to `Cc1cnc(NCCc2ccccc2)c(=O)n1CC(=O)NCCONC(=N)N` [Example 1, 1-{N-[2-(amidinoaminooxy)ethyl]amino}carbonylmethyl-6-methyl-3-(phenethylamino)-pyrazinone trifluoroacetate], the Ki was determined as 46 nM.

On to `Cc1c(Cl)nc(NCCc2ccccc2)c(=O)n1CC(=O)NCCONC(=N)N` [Example 2, 1-{N-[2-(amidinoaminooxy)ethyl]amino}carbonylmethyl-5-chloro-6-methyl-3-(phenethylamino)-pyrazinone trifluoroacetate], for which affinity was put at a Ki of 330 nM.

On to `Cc1c(Cl)nc(NCC(c2ccccc2)c2ccccc2)c(=O)n1CC(=O)NCCONC(=N)N` [Example 4, 1-{N-[2-(amidinoaminooxy)ethyl]amino}carbonylmethyl-5-chloro-6-methyl-3-(2,2-diphenylethylamino)-pyrazinone trifluoroacetate], for which the affinity corresponds to a Ki of 85 nM.

For the molecule `Cc1ccc(CCNc2ncc(C)n(CC(=O)NCCONC(=N)N)c2=O)cc1` [Example 5, 1-{N-[2-(amidinoaminooxy)ethyl]amino}carbonylmethyl-6-methyl-3-(4-methylphenethylamino)-pyrazinone trifluoroacetate], the Ki was 20 nM.
